Measured values from US20240226225A1 (Protagonist Therapeutics, Inc., priority 2021, published 2024).
Starred links: 1 amine or outer side, 2 acyl side, 3 side chain; linkers in the order of their positions; H or OH if unused. Positions of bridges follow the written chain, without caps; N, C: chain ends. Non-standard residues stand in square brackets, D forms with d. Residues, ends and D or L forms follow the SMILES beside them. Groups on a side chain read outwards from the residue. *: point of attachment. Ala(1H-tetrazol-5-yl) = N[C@@H](Cc1nnn[nH]1)C(=O)O; Phe(3,4-Cl2) = N[C@@H](Cc1ccc(Cl)c(Cl)c1)C(=O)O; Phe(2,4-Cl2) = N[C@@H](Cc1ccc(Cl)cc1Cl)C(=O)O; Phe(3,5-F2) = N[C@@H](Cc1cc(F)cc(F)c1)C(=O)O; C18 diacid = O=C(O)CCCCCCCCCCCCCCCCC(=O)*; Dip = N[C@H](C(=O)O)C(c1ccccc1)c1ccccc1; γGlu = O=C(O)[C@H](CCC(=O)[*:2])N[*:1]; β3hF = N[C@H](CC(=O)O)Cc1ccccc1; Isovaleryl = CC(C)CC(=O)*; AEEA = NCCOCCOCC(=O)O

These compounds were tested against T1, ferroportin (Homo sapiens, UniProt Q9NP59) (assay: FPN activity assay: internalization/degradation of ferroportin-GFP in stably transfected HEK293 cells, decrease in GFP fluorescence). Settings: HEK293 cells stably expressing ferroportin-GFP, at least 18 hours incubation; read-out: FPN EC50.
T1 sequence (Q9NP59 1-571): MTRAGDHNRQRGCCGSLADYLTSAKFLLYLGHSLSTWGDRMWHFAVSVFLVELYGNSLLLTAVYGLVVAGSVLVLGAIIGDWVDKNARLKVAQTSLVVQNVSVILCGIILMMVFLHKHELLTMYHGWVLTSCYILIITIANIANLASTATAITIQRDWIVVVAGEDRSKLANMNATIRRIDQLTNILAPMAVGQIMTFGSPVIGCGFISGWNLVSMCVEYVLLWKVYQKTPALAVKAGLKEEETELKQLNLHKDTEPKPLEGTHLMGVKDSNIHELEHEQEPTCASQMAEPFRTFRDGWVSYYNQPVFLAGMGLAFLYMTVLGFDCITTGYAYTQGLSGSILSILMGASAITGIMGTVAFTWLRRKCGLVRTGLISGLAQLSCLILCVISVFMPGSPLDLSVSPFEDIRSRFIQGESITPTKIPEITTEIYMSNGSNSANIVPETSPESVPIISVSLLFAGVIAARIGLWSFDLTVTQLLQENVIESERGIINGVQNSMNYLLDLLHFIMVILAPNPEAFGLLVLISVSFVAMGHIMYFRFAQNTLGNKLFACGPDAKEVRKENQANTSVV
Format: cell-based
Design: expressed in transfected cells

| DC50 [nM] | Compound |
| --- | --- |
| > 500 | CC[C@H](C)[C@@H]1NC(=O)[C@@H](NC(=O)[C@@H]2CCCN2C(=O)[C@@H](NC(=O)[C@H](Cc2c[nH]cn2)NC(=O)[C@@H](NC(=O)[C@H](Cc2nn[nH]n2)NC(=O)CCCCN)[C@@H](C)O)C(c2ccccc2)c2ccccc2)CSSC[C@@H](C(N)=O)NC(=O)[C@@H](CCCCN)NC(=O)C[C@H](Cc2ccccc2)NC(=O)[C@H](CCCCNC(=O)COCCOCCNC(=O)COCCOCCNC(=O)CC[C@H](NC(=O)CCCCCCCCCCCCCCCCC(=O)O)C(=O)O)NC1=O [Compd 39, 5 AminoPentanoicAcid-[Tet1]-T-H-[Dpa]-P-[Cys]-I-[Lys(1PEG2_1PEG2_IsoGlu_C18_Diacid)]-[bhPhe]-[(D)Lys]-[Cys]-NH2] |
| 100 to 500 | CC[C@H](C)[C@@H]1NC(=O)[C@@H](NC(=O)[C@@H]2CCCN2C(=O)[C@H](Cc2ccc(Cl)c(Cl)c2)NC(=O)[C@H](Cc2c[nH]cn2)NC(=O)[C@@H](NC(=O)[C@H](Cc2nn[nH]n2)NC(=O)CC(C)C)[C@@H](C)O)CSSC[C@@H](C(N)=O)NC(=O)[C@@H](CCCCN)NC(=O)C[C@H](Cc2ccccc2)NC(=O)[C@H](CCCCNC(=O)COCCOCCNC(=O)COCCOCCNC(=O)CC[C@H](NC(=O)CCCCCCCCCCCCCCCCC(=O)O)C(=O)O)NC1=O [Compd 25, Isovaleric Acid-[Tet1]-T-H-[Phe_34diCl]-P-[Cys]-I-[Lys(1PEG2_1PEG2_IsoGlu_C18_Diacid)]-[bhPhe]-[(D)Lys]-[Cys]-NH2] (Isovaleryl-[Ala(1H-tetrazol-5-yl)]TH[Phe(3,4-Cl2)]PCIK([AEEA-AEEA-γGlu-C18 diacid])[β3hF][dK]C-NH2; disulfide 6-11) |
| > 500 | CC[C@H](C)[C@@H]1NC(=O)[C@@H](NC(=O)[C@@H]2CCCN2C(=O)[C@@H](NC(=O)[C@H](Cc2c[nH]cn2)NC(=O)[C@@H](NC(=O)[C@H](Cc2nn[nH]n2)NC(=O)CCCN)[C@@H](C)O)C(c2ccccc2)c2ccccc2)CSSC[C@@H](C(N)=O)NC(=O)[C@@H](CCCCN)NC(=O)C[C@H](Cc2ccccc2)NC(=O)[C@H](CCCCNC(=O)COCCOCCNC(=O)COCCOCCNC(=O)CC[C@H](NC(=O)CCCCCCCCCCCCCCCCC(=O)O)C(=O)O)NC1=O [Compd 38, Gaba-[Tet1]-T-H-[Dpa]-P-[Cys]-I-[Lys(1PEG2_1PEG2_IsoGlu_C18_Diacid)]-[bhPhe]-[(D)Lys]-[Cys]-NH2] |
| 10 to 100 | CC[C@H](C)[C@@H]1NC(=O)[C@@H](NC(=O)[C@@H]2CCCN2C(=O)[C@H](Cc2ccccc2)NC(=O)[C@H](Cc2c[nH]cn2)NC(=O)[C@@H](NC(=O)[C@H](Cc2nn[nH]n2)NC(=O)CC(C)C)[C@@H](C)O)CSSC[C@@H](C(=O)N[C@@H](CCCCN)C(N)=O)NC(=O)CNC(=O)[C@H](CCCCN)NC(=O)[C@H](CO)NC(=O)[C@H](CCCNC(=N)N)NC(=O)[C@@H]2CCCN2C(=O)[C@H](CCC(=O)O)NC(=O)[C@H](Cc2ccccc2)NC(=O)[C@H](CCCCNC(=O)COCCOCCNC(=O)COCCOCCNC(=O)CC[C@H](NC(=O)CCCCCCCCCCCCCCCCC(=O)O)C(=O)O)NC1=O [Compd 3, Isovaleric Acid-[Tet1]-T-H-F-P-[Cys]-I-[Lys(1PEG2_1PEG2_IsoGlu_C18_Diacid)]-F-E-P-R-S-K-G-[Cys]-K-NH2] (Isovaleryl-[Ala(1H-tetrazol-5-yl)]THFPCIK([AEEA-AEEA-γGlu-C18 diacid])FEPRSKGCK-NH2; disulfide 6-16) |

Further lines, the compound ahead of its results:

| Compound | DC50 [nM] |
| --- | --- |
| CC[C@H](C)[C@@H]1NC(=O)[C@@H](NC(=O)[C@@H]2CCCN2C(=O)[C@@H](NC(=O)[C@H](Cc2c[nH]cn2)NC(=O)[C@@H](NC(=O)[C@H](Cc2nn[nH]n2)NC(=O)CC(C)C)[C@@H](C)O)C(c2ccccc2)c2ccccc2)CSSC[C@@H](C(N)=O)NC(=O)[C@@H](CCCCN)NC(=O)C[C@H](Cc2ccccc2)NC(=O)[C@H](CCCCNC(=O)COCCOCCNC(=O)COCCOCCNC(=O)CC[C@H](NC(=O)CCCCCCCCCCCCCCCCC(=O)O)C(=O)O)NC1=O [Compd 40, Isovaleric Acid-[Tet1]-T-H-[Dpa]-P-[Cys]-I-[Lys(1PEG2_1PEG2_IsoGlu_C18_Diacid)]-[bhPhe]-[(D)Lys]-[Cys]-NH2] (Isovaleryl-[Ala(1H-tetrazol-5-yl)]TH[Dip]PCIK([AEEA-AEEA-γGlu-C18 diacid])[β3hF][dK]C-NH2; disulfide 6-11) | 10 to 100 |
| CC[C@H](C)[C@@H]1NC(=O)[C@@H](NC(=O)[C@@H]2CCCN2C(=O)[C@@H](NC(=O)[C@H](Cc2c[nH]cn2)NC(=O)[C@@H](NC(=O)[C@H](Cc2nn[nH]n2)NC(=O)CC(C)C)[C@@H](C)O)C(c2ccccc2)c2ccccc2)CSSC[C@@H](C(=O)O)NC(=O)C[C@H](Cc2ccccc2)NC(=O)[C@H](CCCCNC(=O)COCCOCCNC(=O)COCCOCCNC(=O)CC[C@H](NC(=O)CCCCCCCCCCCCCCCCC(=O)O)C(=O)O)NC1=O [Compd 37, Isovaleric Acid-[Tet1]-T-H-[Dpa]-P-[Cys]-I-[Lys(1PEG2_1PEG2_IsoGlu_C18_Diacid)]-[bhPhe]-[Cys]] (Isovaleryl-[Ala(1H-tetrazol-5-yl)]TH[Dip]PCIK([AEEA-AEEA-γGlu-C18 diacid])[β3hF]C-OH; disulfide 6-10; C-terminus assumed) | > 500 |
| CC[C@H](C)[C@@H]1NC(=O)[C@@H](NC(=O)[C@@H]2CCCN2C(=O)[C@H](Cc2cc(F)cc(F)c2)NC(=O)[C@H](Cc2c[nH]cn2)NC(=O)[C@@H](NC(=O)[C@H](Cc2nn[nH]n2)NC(=O)CC(C)C)[C@@H](C)O)CSSC[C@@H](C(N)=O)NC(=O)[C@@H](CCCCN)NC(=O)C[C@H](Cc2ccccc2)NC(=O)[C@H](CCCCNC(=O)COCCOCCNC(=O)COCCOCCNC(=O)CC[C@H](NC(=O)CCCCCCCCCCCCCCCCC(=O)O)C(=O)O)NC1=O [Compd 19, Isovaleric Acid-[Tet1]-T-H-[Phe_35diF]-P-[Cys]-I-[Lys(1PEG2_1PEG2_IsoGlu_C18_Diacid)]-[bhPhe]-[(D)Lys]-[Cys]-NH2] (Isovaleryl-[Ala(1H-tetrazol-5-yl)]TH[Phe(3,5-F2)]PCIK([AEEA-AEEA-γGlu-C18 diacid])[β3hF][dK]C-NH2; disulfide 6-11) | 100 to 500 |
| CCCCCCCCCCCCCCCC(=O)NCCOCCOCCOCCOCCOCCOCCOCCOCCOCCOCCOCCOCCC(=O)NCCCC[C@@H]1NC(=O)[C@H](Cc2ccccc2)NC(=O)[C@H](CCCCN)NC(=O)[C@H]([C@@H](C)CC)NC(=O)[C@@H](NC(=O)[C@@H]2CCCN2C(=O)[C@H](Cc2ccccc2)NC(=O)[C@H](Cc2c[nH]cn2)NC(=O)[C@@H](NC(=O)[C@H](CC(=O)O)NC(=O)CC(C)C)[C@@H](C)O)CSSC[C@@H](C(=O)N[C@@H](CCCCN)C(N)=O)NC(=O)CNC(=O)[C@H](CCCCN)NC(=O)[C@H](CO)NC(=O)[C@H](CCCNC(=N)N)NC(=O)[C@@H]2CCCN2C1=O [compound 1, reference compound] | 10 to 100 |
| CC[C@H](C)[C@@H]1NC(=O)[C@@H](NC(=O)[C@@H]2CCCN2C(=O)[C@@H](NC(=O)[C@H](Cc2cnc[nH]2)NC(=O)[C@@H](NC(=O)[C@H](CC2N=NN=N2)NC(=O)c2ccccc2)[C@@H](C)O)C(c2ccccc2)c2ccccc2)CSSC[C@@H](C(N)=O)NC(=O)[C@@H](CCCCN)NC(=O)C[C@H](Cc2ccccc2)NC(=O)[C@H](CCCCNC(=O)COCCOCCNC(=O)COCCOCCNC(=O)CC[C@H](NC(=O)CCCCCCCCCCCCCCCCC(=O)O)C(=O)O)NC1=O [Compd 42, Benzyl-[Tet1]-T-H-[Dpa]-P-[Cys]-I-[Lys(1PEG2_1PEG2_IsoGlu_C18_Diacid)]-[bhPhe]-[(D)Lys]-[Cys]-NH2] | 10 to 100 |
| CC[C@H](C)[C@@H]1NC(=O)[C@@H](NC(=O)[C@@H]2CCCN2C(=O)[C@H](Cc2ccc(Cl)cc2Cl)NC(=O)[C@H](Cc2c[nH]cn2)NC(=O)[C@@H](NC(=O)[C@H](Cc2nn[nH]n2)NC(=O)CC(C)C)[C@@H](C)O)CSSC[C@@H](C(N)=O)NC(=O)[C@@H](CCCCN)NC(=O)C[C@H](Cc2ccccc2)NC(=O)[C@H](CCCCNC(=O)COCCOCCNC(=O)COCCOCCNC(=O)CC[C@H](NC(=O)CCCCCCCCCCCCCCCCC(=O)O)C(=O)O)NC1=O [Compd 26, Isovaleric Acid-[Tet1]-T-H-[Phe_24diCl]-P-[Cys]-I-[Lys(1PEG2_1PEG2_IsoGlu_C18_Diacid)]-[bhPhe]-[(D)Lys]-[Cys]-NH2] (Isovaleryl-[Ala(1H-tetrazol-5-yl)]TH[Phe(2,4-Cl2)]PCIK([AEEA-AEEA-γGlu-C18 diacid])[β3hF][dK]C-NH2; disulfide 6-11) | 100 to 500 |

The compounds below were run against T1, ferroportin (assay: T47D cell-based ferroportin internalization assay in presence of 0.5% mouse serum albumin (MSA), AF647-conjugated detection peptide, flow cytometry). Settings: T47D cells, 1 hr incubation.
Design: a human breast carcinoma adherent cell line which endogenously expresses ferroportin; host or cells: T47D
Method: The potency of the peptides in causing ferroportin internalization was evaluated in a T47D cell-based assay. […] In this internalization assay, the potency of the test peptides was evaluated in presence of serum albumin which is the main protein component in the blood. T47D cells were maintained in RPMI media (containing required amount of fetal bovine serum) and regularly sub-cultured. In preparation for the assay, the cells were seeded in 96-well plates at a density of 80-100 k cells per well in 100 ul volume and allowed to rest overnight. On the next day, test peptides were first prepared in dilution series (10-point series, starting concentration of ˜5 μM, typically 3-4×fold dilution steps), all with 0.5% mouse serum albumin (MSA purified from mouse serum; Sigma, A3139). The test peptide dilution series were allowed to incubate at room temperature for 30 min. Then the media was aspirated from the 96-well cell plate and test peptide dilution series were added. After 1 hr incubation, the media with test peptides was aspirated out and AF647-conjugated detection peptide was added at fixed concentration of 200 nM. The AF647-conjugated detection peptide was previously verified to bind to ferroportin and cause its internalization. The cells were washed again after a 2 hr incubation in preparation for flow cytometry analysis. The Median Fluorescence Intensity (MFI) of the AF647-positive population was measured (after removing dead cells and non-singlets from the analysis). The MFI values were used to generate a dose-response curve and obtain IC50 potencies for the test peptides. The IC50 potencies were calculated by using 4-parameter non-linear fitting function in Graphpad Prism (Table 2A).

| IC50 [nM] | Compound |
| --- | --- |
| 10 to 100 | CC[C@H](C)[C@@H]1NC(=O)[C@@H](NC(=O)[C@@H]2CCCN2C(=O)[C@@H](NC(=O)[C@H](Cc2c[nH]cn2)NC(=O)[C@@H](NC(=O)[C@H](Cc2nn[nH]n2)NC(=O)CC(C)C)[C@@H](C)O)C(c2ccccc2)c2ccccc2)CSSC[C@@H](C(N)=O)NC(=O)[C@@H](CCCCN)NC(=O)C[C@H](Cc2ccccc2)NC(=O)[C@H](CCCCNC(=O)COCCOCCNC(=O)COCCOCCNC(=O)CC[C@H](NC(=O)CCCCCCCCCCCCCCCCC(=O)O)C(=O)O)NC1=O [Compd 40, Isovaleric Acid-[Tet1]-T-H-[Dpa]-P-[Cys]-I-[Lys(1PEG2_1PEG2_IsoGlu_C18_Diacid)]-[bhPhe]-[(D)Lys]-[Cys]-NH2] (Isovaleryl-[Ala(1H-tetrazol-5-yl)]TH[Dip]PCIK([AEEA-AEEA-γGlu-C18 diacid])[β3hF][dK]C-NH2; disulfide 6-11) |
